Measured values reported in patent publication US20260116920A1, “HUMAN TRANSFERRIN RECEPTOR BINDING PEPTIDE” (PEPTIDREAM INC., priority 2021, published 2026).
Positions of bridges follow the written chain, without caps; N, C: chain ends. Non-standard residues stand in square brackets, D forms with d. Residues, ends and D or L forms follow the SMILES beside them. *: point of attachment. Trp(1-CH2COOH) = N[C@@H](Cc1cn(CC(=O)O)c2ccccc12)C(=O)O; Phe(3-COOH) = N[C@@H](Cc1cccc(C(=O)O)c1)C(=O)O; NH(CH2CH2O)8Me = COCCOCCOCCOCCOCCOCCOCCOCCN*; NMePhe(3-Cl) = CN[C@@H](Cc1cccc(Cl)c1)C(=O)O; 3Pal(6-NH2) = Nc1ccc(C[C@H](N)C(=O)O)cn1; NMeY = CN[C@@H](Cc1ccc(O)cc1)C(=O)O; 4Pal = N[C@@H](Cc1ccncc1)C(=O)O; PEG4 = NCCOCCOCCOCCOCCC(=O)O; Carboxymethyl = O=C(O)C*

These molecules were tested against T1, human transferrin receptor (hTfR) (Homo sapiens, UniProt P02786) (assay: Evaluation of molecular interaction between transferrin receptor (hTfR) and peptide using surface plasmon resonance (SPR)). Settings: surface plasmon resonance, binding to hTfR; KD class symbol; read-out: SPR (KD value).
T1 construct: made in house
Assay type: binding
Outline: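 Using a Ni-NTA surface bearing covalently coupled hTfR dimer, peptides were tested at five concentrations from 5 to 100 nM. Running buffer was 10 mM HEPES pH 8.0, 150 mM NaCl, 0.05% Tween 20, 0.1% BSA, 1.0% DMSO; single-cycle sensorgrams were least-squares fitted for KD.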

T1 sequence (P02786 89-760 limits assumed): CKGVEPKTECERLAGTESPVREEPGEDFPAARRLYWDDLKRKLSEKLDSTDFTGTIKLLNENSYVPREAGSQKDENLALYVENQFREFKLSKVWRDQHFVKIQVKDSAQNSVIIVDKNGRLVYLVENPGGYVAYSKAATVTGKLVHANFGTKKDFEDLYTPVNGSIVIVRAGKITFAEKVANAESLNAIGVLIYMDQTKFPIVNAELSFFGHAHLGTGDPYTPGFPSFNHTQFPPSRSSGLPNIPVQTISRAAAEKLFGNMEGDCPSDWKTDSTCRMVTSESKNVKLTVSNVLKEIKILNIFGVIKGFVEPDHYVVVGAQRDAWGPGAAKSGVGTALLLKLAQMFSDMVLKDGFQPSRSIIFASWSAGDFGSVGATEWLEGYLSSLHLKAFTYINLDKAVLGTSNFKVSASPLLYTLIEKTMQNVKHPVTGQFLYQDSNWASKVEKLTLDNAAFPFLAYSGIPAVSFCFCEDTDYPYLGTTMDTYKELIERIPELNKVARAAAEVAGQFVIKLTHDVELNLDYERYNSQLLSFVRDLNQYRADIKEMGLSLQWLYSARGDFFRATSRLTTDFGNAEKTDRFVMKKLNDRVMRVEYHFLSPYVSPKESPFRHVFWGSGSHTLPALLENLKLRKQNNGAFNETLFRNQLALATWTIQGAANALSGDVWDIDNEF

Compound	Kd [nM]
CC[C@H](C)[C@@H]1NC(=O)[C@H](Cc2ccc(OCC(=O)O)cc2)NC(=O)[C@H](Cc2ccc(N)nc2)NC(=O)[C@H](CC(N)=O)NC(=O)[C@H](Cc2cn(CC(=O)O)c3ccccc23)NC(=O)[C@H](C(C)C)NC(=O)[C@H](Cc2cccc(Cl)c2)N(C)C(=O)[C@H](C(C)C)NC(=O)[C@H](C)NC(=O)CSC[C@@H](C(=O)NCCOCCOCCOCCOCCC(N)=O)NC(=O)[C@H](Cc2ccc(O)cc2)N(C)C(=O)[C@H](Cc2cccc(C(=O)O)c2)NC(=O)[C@H](CCC(=O)NCCOCCOCCOCCOCCOCCOCCOCCOC)NC(=O)[C@H](CCCNC(=N)N)NC(=O)[C@H]([C@@H](C)CC)NC1=O [compound 87] ({CH2CO}-AV[NMePhe(3-Cl)]V[Trp(1-CH2COOH)]N[3Pal(6-NH2)]Y(Carboxymethyl)IIRE(NH(CH2CH2O)8Me)[Phe(3-COOH)][NMeY]C[PEG4]-NH2; thioether N-15)	100 to 1000
CC[C@H](C)[C@@H]1NC(=O)[C@H](Cc2ccc(OCC(=O)O)cc2)NC(=O)[C@H](Cc2ccc(N)nc2)NC(=O)[C@H](CC(N)=O)NC(=O)[C@H](Cc2cn(CC(=O)O)c3ccccc23)NC(=O)[C@H](C(C)C)NC(=O)[C@H](Cc2cccc(Cl)c2)N(C)C(=O)[C@H](C(C)C)NC(=O)[C@H](C)NC(=O)CSC[C@@H](C(=O)NCCOCCOCCOCCOCCC(N)=O)NC(=O)[C@H](Cc2ccc(O)cc2)N(C)C(=O)[C@H](Cc2ccncc2)NC(=O)[C@H](CCC(=O)NCCOCCOCCOCCOCCOCCOCCOCCOC)NC(=O)[C@H](CCCNC(=N)N)NC(=O)[C@H]([C@@H](C)CC)NC1=O [compound 88] ({CH2CO}-AV[NMePhe(3-Cl)]V[Trp(1-CH2COOH)]N[3Pal(6-NH2)]Y(Carboxymethyl)IIRE(NH(CH2CH2O)8Me)[4Pal][NMeY]C[PEG4]-NH2; thioether N-15)	100 to 1000
CC[C@H](C)[C@@H]1NC(=O)[C@H](Cc2ccc(OCC(=O)O)cc2)NC(=O)[C@H](Cc2ccc(O)cc2)NC(=O)[C@H](CC(N)=O)NC(=O)[C@H](Cc2c[nH]c3ccccc23)NC(=O)[C@H](C(C)C)NC(=O)[C@H](Cc2cccc(Cl)c2)N(C)C(=O)[C@H](C(C)C)NC(=O)[C@H](C)NC(=O)CSC[C@@H](C(=O)NCCOCCOCCOCCOCCC(N)=O)NC(=O)[C@H](Cc2ccc(O)cc2)N(C)C(=O)[C@H](Cc2ccccc2)NC(=O)[C@H](CCC(=O)NCCOCCOCCOCCOCCOCCOCCOCCOC)NC(=O)[C@H](CCCNC(=N)N)NC(=O)[C@H]([C@@H](C)CC)NC1=O [compound 89]	1 to 100
CC[C@H](C)[C@@H]1NC(=O)[C@H](Cc2ccc(OC)cc2)NC(=O)[C@H](Cc2ccc(O)cc2)NC(=O)[C@H](CC(N)=O)NC(=O)[C@H](Cc2c[nH]c3ccccc23)NC(=O)[C@H](C(C)C)NC(=O)[C@H](Cc2cccc(Cl)c2)N(C)C(=O)[C@H](C(C)C)NC(=O)[C@H](C)NC(=O)CSC[C@@H](C(=O)NCCOCCOCCOCCOCCC(N)=O)NC(=O)[C@H](Cc2ccc(O)cc2)N(C)C(=O)[C@H](Cc2cccc(C(=O)O)c2)NC(=O)[C@H](CCC(=O)NCCOCCOCCOCCOCCOCCOCCOCCOC)NC(=O)[C@H](CCCNC(=N)N)NC(=O)[C@H]([C@@H](C)CC)NC1=O [compound 90] ({CH2CO}-AV[NMePhe(3-Cl)]VWNYY(Me)IIRE(NH(CH2CH2O)8Me)[Phe(3-COOH)][NMeY]C[PEG4]-NH2; thioether N-15)	1 to 100
CC[C@H](C)[C@@H]1NC(=O)[C@H](Cc2ccc(OCC(=O)O)cc2)NC(=O)[C@H](Cc2ccc(N)nc2)NC(=O)[C@H](CC(N)=O)NC(=O)[C@H](Cc2c[nH]c3ccccc23)NC(=O)[C@H](C(C)C)NC(=O)[C@H](Cc2cccc(Cl)c2)N(C)C(=O)[C@H](C(C)C)NC(=O)[C@H](C)NC(=O)CSC[C@@H](C(=O)NCCOCCOCCOCCOCCC(N)=O)NC(=O)[C@H](Cc2ccc(O)cc2)N(C)C(=O)[C@H](Cc2cccc(C(=O)O)c2)NC(=O)[C@H](CCCNC(=N)N)NC(=O)[C@H](CCCNC(=N)N)NC(=O)[C@H]([C@@H](C)CC)NC1=O [compound 91] ({CH2CO}-AV[NMePhe(3-Cl)]VWN[3Pal(6-NH2)]Y(Carboxymethyl)IIRR[Phe(3-COOH)][NMeY]C[PEG4]-NH2; thioether N-15)	1 to 100
